The record followed here is ChEMBL document CHEMBL1146285, “Trimethylsilylpyrazoles as novel inhibitors of p38 MAP kinase: a new use of silicon bioisosteres in medicinal chemistry” (Bioorg Med Chem Lett, 2007).

Molecules are shown by their SMILES.

The nature of data set [1]: Partition coefficient, log P of the compound. To be noted: octanol/water. It is filed as physicochemical.
Data set [2] in a line: Distribution coefficient, log D at pH 7.4. It is filed as physicochemical. To be noted: octanol/water.
The subject of data set [3] is Mus musculus. Kind of data set: Suppression of lipopolysaccharide-induced TNFalpha release in mouse at 10 mg/kg, po after 120 mins. It is filed as functional.
Data set [4] deals with Mus musculus. Kind of data set: Suppression of lipopolysaccharide-induced TNFalpha release in mouse at 10 mg/kg, po after 30 mins. It is filed as functional.
Data set [5] is described as follows: Distribution coefficient, log D at pH 6.0. It is filed as physicochemical. The note with it: octanol/water.
The nature of data set [6]: Metabolic stability in human liver microsomes at 1 uM after 40 mins. It is filed as ADME, Microsome. The note with it: read-out: Stability. On the technique in general: Liver microsomes are vesicles of endoplasmic reticulum, rich in cytochrome P450 enzymes.
Data set [7] can be described thus: Distribution coefficient, log D at pH 6.5. It is filed as physicochemical. To be noted: octanol/water.

In data set [1], `Cc1ccc(-n2nc(C(C)(C)C)cc2NC(=O)Nc2ccc(OCCN3CCOCC3)c3ccccc23)cc1` [DORAMAPIMOD] displayed a logP of 5.2. Also, the logD in data set [2] was found to be 5.1; in data set [5] it was 4.6; in data set [7], 4.9. For the same compound, the values for the Activity with Mus musculus [3] and in the data set on Mus musculus [4] were -40% and -41%, respectively. In addition, in data set [6], the remaining at 40 min, 1 µM worked out at 79%.

The term logP denotes the decadic logarithm of the partition coefficient of the neutral form, usually between octanol and water. Low readings indicate a more hydrophilic compound, high ones a more lipophilic compound. The logD is the decadic logarithm of the distribution of all forms, ionised or not, between an organic phase and buffer at a given pH. A lower logD goes with a more hydrophilic compound.
